Measured values as given in patent publication US5770573A, “CS-1 peptidomimetics, compositions and methods of using the same” (Cytel Corporation, priority 1995, dated 1998).
Numbered stars: 1 amine (or outer) side, 2 acyl side, 3 side chain; on linkers, the order of the positions; unused ones are H or OH. Square brackets hold non-standard residues; d marks the D form. Peptide text beside a SMILES is read from it. * marks the point of attachment. X20 = O=C(CCCCCO[C@@H]1O[C@H](CO)[C@@H](O)[C@H](O)[C@H]1N[*:1])[*:2]; hPhe = N[C@@H](CCc1ccccc1)C(=O)O; Morpholide = C1CN(*)CCO1; Octanoyl = CCCCCCCC(=O)*; Piperidide = C1CCN(*)CC1; X7 = O=C(CO*)OCc1ccccc1; Cbz = O=C(OCc1ccccc1)*; PhAc = O=C(Cc1ccccc1)*; OtBu = CC(C)(C)O*; tBu = CC(C)(C)*; X6 = O=C(O)CO*; NHBu = CCCCN*

What follows are molecules tested against VLA-4 (Homo sapiens, UniProt P05556+P13612) (assay: In vitro binding inhibition of 51Cr-labeled Jurkat cells to solid phase-bound CS-1 compound (SEQ ID NO:1)). Settings: not given.
Sequence of VLA-4 (P13612 34-1032): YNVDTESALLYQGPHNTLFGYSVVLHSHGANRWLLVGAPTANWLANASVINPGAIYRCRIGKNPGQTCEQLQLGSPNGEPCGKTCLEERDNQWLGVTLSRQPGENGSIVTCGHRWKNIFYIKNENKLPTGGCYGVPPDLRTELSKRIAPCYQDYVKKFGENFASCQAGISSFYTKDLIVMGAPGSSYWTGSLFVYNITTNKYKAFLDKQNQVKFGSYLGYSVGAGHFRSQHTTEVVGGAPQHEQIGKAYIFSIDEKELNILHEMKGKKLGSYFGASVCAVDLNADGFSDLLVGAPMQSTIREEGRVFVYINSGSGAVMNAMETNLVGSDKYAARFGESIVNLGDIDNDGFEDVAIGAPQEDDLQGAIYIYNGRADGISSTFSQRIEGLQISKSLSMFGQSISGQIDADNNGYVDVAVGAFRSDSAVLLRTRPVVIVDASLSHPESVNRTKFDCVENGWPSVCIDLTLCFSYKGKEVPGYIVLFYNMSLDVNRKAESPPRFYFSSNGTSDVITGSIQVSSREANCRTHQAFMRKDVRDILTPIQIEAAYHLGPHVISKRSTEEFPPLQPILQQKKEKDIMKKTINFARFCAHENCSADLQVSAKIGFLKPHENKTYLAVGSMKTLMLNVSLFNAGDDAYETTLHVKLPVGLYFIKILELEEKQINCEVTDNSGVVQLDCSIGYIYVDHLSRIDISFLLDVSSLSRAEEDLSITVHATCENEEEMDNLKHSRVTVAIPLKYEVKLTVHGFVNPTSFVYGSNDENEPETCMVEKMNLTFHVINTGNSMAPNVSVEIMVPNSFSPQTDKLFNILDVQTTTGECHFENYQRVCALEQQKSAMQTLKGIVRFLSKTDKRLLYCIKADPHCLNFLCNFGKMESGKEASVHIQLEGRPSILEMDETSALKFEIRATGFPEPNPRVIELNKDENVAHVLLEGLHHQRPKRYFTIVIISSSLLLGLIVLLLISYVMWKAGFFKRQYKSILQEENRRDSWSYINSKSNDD
Sequence of VLA-4 (P05556 21-798): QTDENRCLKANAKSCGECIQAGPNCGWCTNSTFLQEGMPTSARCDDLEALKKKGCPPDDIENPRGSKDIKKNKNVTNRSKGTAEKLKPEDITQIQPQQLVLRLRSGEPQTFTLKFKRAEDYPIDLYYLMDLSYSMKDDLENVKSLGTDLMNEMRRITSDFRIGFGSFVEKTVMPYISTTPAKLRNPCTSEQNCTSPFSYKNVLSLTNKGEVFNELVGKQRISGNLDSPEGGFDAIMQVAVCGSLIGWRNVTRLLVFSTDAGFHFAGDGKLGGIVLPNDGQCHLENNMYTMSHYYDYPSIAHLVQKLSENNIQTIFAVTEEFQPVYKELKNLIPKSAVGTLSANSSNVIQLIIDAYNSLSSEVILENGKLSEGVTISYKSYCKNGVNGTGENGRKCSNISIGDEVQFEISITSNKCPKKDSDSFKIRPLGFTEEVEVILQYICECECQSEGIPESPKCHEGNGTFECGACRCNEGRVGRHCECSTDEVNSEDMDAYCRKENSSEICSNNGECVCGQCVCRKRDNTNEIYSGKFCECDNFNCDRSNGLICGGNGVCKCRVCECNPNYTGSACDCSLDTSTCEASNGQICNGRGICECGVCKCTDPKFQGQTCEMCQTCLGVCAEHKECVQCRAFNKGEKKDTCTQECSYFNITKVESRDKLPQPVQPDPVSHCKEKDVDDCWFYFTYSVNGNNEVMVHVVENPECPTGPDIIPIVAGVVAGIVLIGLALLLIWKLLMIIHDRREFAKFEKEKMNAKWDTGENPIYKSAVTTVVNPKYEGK
Type: cell-based
Set-up: inflammatory cells that contain the VLA-4 receptor [Jurkat cells; host or cells: Jurkat (human T lymphoblastic line)
In short: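 51Cr-labeled human Jurkat cells were preincubated with compound 30 min at about 22° C, then allowed to bind to wells coated with CS-1 peptide or CS-1-OVA for 30 min at 37° C. After washing, bound cells were lysed with SDS and counted. IC50 is the concentration halving binding, normalized to SEQ ID NO: 3.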

SMILES	Relative Potency
CC(C)CC(C(=O)NCc1ccccc1)C(=O)N[C@@H](CC(=O)O)C(=O)N[C@@H](Cc1ccccc1)C(=O)N1CCC[C@@H]1C(N)=O (some centres unmarked) [1034.01]	1.96
CC(C)CC(C(=O)NCc1ccccc1)C(=O)N[C@@H](CC(=O)O)C(=O)N[C@@H](Cc1ccccc1)C(=O)N1CCCCC1 (some centres unmarked) [1034.02]	0
CC(C)C[C@H](NC(=O)c1ccncc1)C(=O)N[C@@H](CC(=O)O)C(=O)N[C@@H](Cc1ccc(O)cc1)C(=O)N1CCCCC1 [1045.01]	23.8
CC(C)C[C@@H](C(=O)N[C@@H](CC(=O)O)C(=O)N[C@@H](Cc1ccccc1)C(=O)N1CCCCC1)N1C(=O)N[C@H](c2ccccc2)C1=O [1047.01]	34.4
CC(C)C[C@@H](C(=O)N[C@@H](CC(=O)O)C(=O)N[C@@H](Cc1ccccc1)C(=O)N1CCCCC1)N1C(=O)N[C@@H](c2ccccc2)C1=O [1047.02]	3.13
CC(C)C[C@@H](C(=O)N1C(=O)N([C@@H](Cc2ccccc2)C(=O)N2CCCCC2)C(=O)[C@@H]1CC(=O)O)N1C(=O)c2ccccc2C1=O [1047.03]	0
CC(C)C[C@@H]1NC(=O)N([C@@H](CC(=O)O)C(=O)N[C@@H](Cc2ccccc2)C(=O)N2CCCCC2)C1=O [1047.05]	12.5
CC(C)C[C@@H](C(=O)N[C@@H](CC(=O)O)C(=O)N[C@@H](Cc1ccccc1)C(=O)N1CCCCC1)N1C(=O)N[C@@H](Cc2ccccc2)C1=O [1047.06]	6.26
CC(C)C[C@H](N)C(=O)N[C@@H](CC(=O)O)C(=O)N[C@@H](Cc1ccccc1)C(=O)N1CCCCC1 [1047.09] (H-Leu-Asp-Phe-Piperidide)	0.01
CC(C)C[C@H](NC(=O)OCc1ccccc1)C(=O)N[C@@H](CC(=O)O)C(=O)N[C@@H](Cc1ccccc1)C(=O)N1CCC[C@@H]1C(N)=O [1056.01] (Cbz-LDF[dP]-NH2)	34.4
COc1ccc(CCCC(=O)N[C@@H](CC(=O)O)C(=O)N[C@@H](Cc2ccccc2)C(=O)N2CCC[C@@H]2C(N)=O)cc1OC [1056.02]	0
CC(=O)[C@H]1C[C@@H](CC(=O)N[C@@H](CC(=O)O)C(=O)N[C@@H](Cc2ccccc2)C(=O)N2CCC[C@@H]2C(N)=O)C1(C)C [1056.03]	0
NC(=O)[C@H]1CCCN1C(=O)[C@H](Cc1ccccc1)NC(=O)[C@H](CC(=O)O)NC(=O)CCCCc1ccccc1 [1056.04]	.2
NC(=O)[C@H]1CCCN1C(=O)[C@H](Cc1ccccc1)NC(=O)[C@H](CC(=O)O)NC(=O)c1cc2cc(O)ccc2cc1O [1056.05]	0
CC(C)[C@@H]1CC[C@@H](C)C[C@H]1OCC(=O)N[C@@H](CC(=O)O)C(=O)N[C@@H](Cc1ccccc1)C(=O)N1CCC[C@@H]1C(N)=O [1056.06]	0
NC(=O)[C@H]1CCCN1C(=O)[C@H](Cc1ccccc1)NC(=O)[C@H](CC(=O)O)NC(=O)CCCCCC1CCCCC1 [1056.07]	0
NC(=O)[C@H]1CCCN1C(=O)[C@H](Cc1ccccc1)NC(=O)[C@H](CC(=O)O)NC(=O)CCCCC1CCCCC1 [1056.08]	0
CC(C)=CCCC(C)CC(=O)N[C@@H](CC(=O)O)C(=O)N[C@@H](Cc1ccccc1)C(=O)N1CCC[C@@H]1C(N)=O (some centres unmarked) [1056.10]	0
NC(=O)[C@H]1CCCN1C(=O)[C@H](Cc1ccccc1)NC(=O)[C@H](CC(=O)O)NC(=O)CCCCC[N+](=O)[O-] [1056.11]	0
CCCCCCCC(=O)N[C@@H](CC(=O)O)C(=O)N[C@@H](Cc1ccccc1)C(=O)N1CCC[C@@H]1C(N)=O [1056.12] (Octanoyl-Asp-Phe-[dP]-NH2)	0
NC(=O)[C@H]1CCCN1C(=O)[C@H](Cc1ccccc1)NC(=O)[C@H](CC(=O)O)NC(=O)CC12CC3CC(CC(C3)C1)C2 [1056.13]	0
CC(C)CC(CCCc1ccccc1)C(=O)N[C@@H](CC(=O)O)C(=O)N[C@@H](Cc1ccccc1)C(=O)N1CCC[C@@H]1C(N)=O (some centres unmarked) [1056.14]	.25
CC(=O)N[C@H]1[C@H](OCCCCCC(=O)N[C@@H](Cc2ccccc2)C(=O)N[C@@H](CC(C)C)C(=O)N[C@@H](CC(=O)O)C(=O)N[C@@H](Cc2ccccc2)C(=O)N2CCCCC2)O[C@H](CO)[C@@H](O)[C@@H]1O [1063.01] (Ac-[X20]FLDF-Piperidide)	40.7

Same assay, conditions: binding inhibition potency relative to standard compound of SEQ ID NO:3 = 1 (normalized IC50); about one-tenth or less assigned zero

SMILES	Relative Potency
CC(C)C[C@H](NC(=O)Cc1ccccc1)C(=O)N[C@@H](CC(=O)O)C(=O)N[C@@H](Cc1ccc(O)cc1)C(=O)N1CCC[C@H]1C(N)=O [1036.01] (PhAc-LDYP-NH2)	405
CC(C)C[C@H](NC(=O)Cc1ccccc1)C(=O)N[C@@H](CC(=O)O)C(=O)N[C@@H](Cc1ccc(OC(C)(C)C)cc1)C(=O)OC(C)(C)C [1040.01] (PhAc-Leu-Asp-Tyr(tBu)-OtBu)	2.66
CC(C)C[C@H](NC(=O)Cc1ccccc1)C(=O)N[C@@H](CC(=O)O)C(=O)N[C@@H](Cc1ccc(O)cc1)C(=O)OC(C)(C)C [1040.02] (PhAc-Leu-Asp-Tyr-OtBu)	14.7
CC(C)C[C@@H](CN[C@@H](CC(=O)O)C(=O)N[C@@H](Cc1ccccc1)C(=O)N1CCCCC1)NC(=O)Cc1ccccc1 [1041.01]	0
NC(=O)[C@H]1CCCN1C(=O)[C@H](Cc1ccccc1)NC(=O)[C@H](CC(=O)O)NC(=O)[C@H](CS)NC(=O)Cc1ccccc1 [1042.22] (PhAc-CDF[dP]-NH2)	46.9
CC(C)C[C@H](NC(=O)Cc1ccccc1)C(=O)N[C@@H](CC(=O)O)C(=O)N[C@@H](CO)C(=O)N1CCC[C@@H]1C(N)=O [1042.23] (PhAc-LDS[dP]-NH2)	33.2
CC(C)C[C@H](NC(=O)Cc1ccccc1)C(=O)N[C@@H](CC(=O)O)C(=O)N[C@@H]1CCCCNC1=O [1043.01]	17.2
CC(C)C[C@H](NC(=O)Cc1ccccc1)C(=O)N[C@@H](CC(=O)O)C(=O)NC1CCCCNC1=O (some centres unmarked) [1043.02]	26.8
CC(C)C[C@H](NC(=O)Cc1ccccc1)C(=O)N[C@@H](CC(=O)O)C(=O)N[C@@H](Cc1ccc(O)cc1)C(=O)N1CCOCC1 [1045.02] (PhAc-Leu-Asp-Tyr-Morpholide)	313
CC(C)C[C@H](NC(=O)Cc1ccccc1)C(=O)N[C@@H](CC(=O)O)C(=O)N1C(=O)N(Cc2ccccc2)C(=O)[C@H]1Cc1ccccc1 [1047.07]	.38
CC(C)C[C@H](NC(=O)Cc1ccccc1)C(=O)N[C@@H](CC(=O)O)C(=O)N1C(=O)N(Cc2ccccc2)C(=O)[C@@H]1Cc1ccccc1 [1047.08]	.38
CC(C)C[C@H](NC(=O)Cc1ccccc1)C(=O)N[C@@H](CC(=O)O)C(=O)N[C@@H](Cc1ccccc1)C(=O)N1CCNCC1 [1051.02]	507
CCCCNC(=O)[C@H](Cc1ccccc1)NC(=O)[C@H](CC(=O)O)NC(=O)[C@H](CC(C)C)NC(=O)Cc1ccccc1 [1051.03] (PhAc-Leu-Asp-Phe-NHBu)	2.82
CC(C)C[C@H](NC(=O)Cc1ccccc1)C(=O)N[C@@H](CC(=O)O)C(=O)N[C@@H](Cc1ccccc1)C(=O)NCC(=O)N1CCOCC1 [1051.04] (PhAc-LDFG-Morpholide)	3.13
CC(C)C[C@H](NC(=O)Cc1ccccc1)C(=O)N[C@@H](CC(=O)O)C(=O)N[C@@H](Cc1ccccc1)C(=O)NCCCO [1051.05]	25
NC(=O)[C@H]1CCCN1C(=O)[C@H](Cc1ccccc1)NC(=O)[C@H](CC(=O)O)NC(=O)CCCCC1CCSS1 (some centres unmarked) [1056.09]	1.1
O=C(O)CC(C(=O)N[C@@H](Cc1ccccc1)C(=O)N1CCCCC1)N1CC[C@H](NC(=O)Cc2ccccc2)C1=O (some centres unmarked) [1057.01]	.88
CC(C)C[C@H](NC(=O)Cc1ccccc1)C(=O)N[C@@H](CC(=O)O)C(=O)N[C@H]1CCN(C2CCCCC2)C1=O [1057.02]	6.57
CC(C)C[C@H](NC(=O)Cc1ccccc1)C(=O)N[C@@H](CC(=O)O)C(=O)N[C@@H]1CCN(C2CCCCC2)C1=O [1057.03]	3.44
COc1ccccc1N1CC[C@H](NC(=O)[C@H](CC(=O)O)NC(=O)[C@H](CC(C)C)NC(=O)Cc2ccccc2)C1=O [1057.04]	3.13
CC(C)C[C@H](NC(=O)Cc1ccccc1)C(=O)N[C@@H](CC(=O)O)C(=O)NC1CCCCN(CC(N)=O)C1=O (some centres unmarked) [1057.06]	97
CC(C)C[C@H](NC(=O)Cc1ccccc1)C(=O)N[C@@H](CC(=O)O)C(=O)N[C@@H](CCc1ccccc1)C(=O)N1CCC[C@@H]1C(N)=O [1062.03] (PhAc-LD[hPhe][dP]-NH2)	93.9

Same assay, conditions: relative to SEQ ID NO:3 = 1; potency before the prodrug compound is enzymatically converted to an active form

SMILES	Relative Potency (prodrug compound)
CC(C)C[C@H](NC(=O)Cc1ccccc1)C(=O)N[C@@H](CC(=O)OCC(=O)OCc1ccccc1)C(=O)N[C@@H](Cc1ccccc1)C(=O)N1CCC[C@@H]1C(N)=O [1067.01] (PhAc-LD(X7)F[dP]-NH2)	.97
CC(C)C[C@H](NC(=O)Cc1ccccc1)C(=O)N[C@@H](CC(=O)OCC(=O)O)C(=O)N[C@@H](Cc1ccccc1)C(=O)N1CCC[C@@H]1C(N)=O [1067.02] (PhAc-LD(X6)F[dP]-NH2)	.81
